The source of these data is patent publication US12606595B2, “Regentide-041 and composition comprising Regentide-041 for improving skin condition” (NINEBIOPHARM CO., LTD., priority 2020, dated 2026).

In this assay the target is T1, Neutrophil Elastase (Homo sapiens, UniProt P08246).
T1 construct: purchased Enzo Life Science BML-AK497-001
T1 sequence (P08246 30-267): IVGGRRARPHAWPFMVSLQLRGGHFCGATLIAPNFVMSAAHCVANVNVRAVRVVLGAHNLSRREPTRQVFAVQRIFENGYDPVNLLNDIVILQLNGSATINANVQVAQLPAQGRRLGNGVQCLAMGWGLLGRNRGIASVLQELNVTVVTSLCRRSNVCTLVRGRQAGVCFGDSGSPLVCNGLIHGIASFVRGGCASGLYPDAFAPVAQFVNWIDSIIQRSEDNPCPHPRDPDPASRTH
Put plainly: Elastase activity inhibitory ability, Neutrophil Elastase colorimetric method. The format is biochemical. Here is the method:
In order to confirm the elastase activity inhibitory ability of Regentide-041, it was measured using the Neutrophil Elastase colorimetric method (BML-AK497-001, Enzo Life Science, Pennsylvania, USA). Specifically, after an assay buffer and D.W. were diluted at 1:1, an elastase reagent and a substrate reagent were diluted to have final concentrations of 2.2 μU/μl and 100 μM, respectively. In addition, Regentide-041 was diluted to have final concentrations of 0.1, 1, 10, 50, 100, and 150 μM, respectively. A working solution was prepared by mixing the assay buffer, elastase reagent, and Regentide-041 diluent. […] of the working solution was put in each well of a 96-well plate and reacted at 37° C. for 5 minutes. Next, […] of the substrate reagent was put, and absorbance was measured for 15 minutes at absorbance 405 nm with a Microplate reader (Epoch 2 Microplate spectrophotometer. Biotek, Winooski, VT, USA).

Where a SMILES comes first, the peptide text is derived from it.

The inhibition is the percentage by which the read-out fell short of the control. High values mean a response far below the control, low ones a response near the control. Compound `CC[C@H](C)[C@H](NC(=O)CNC(=O)CNC(=O)[C@H](CCCNC(=N)N)NC(=O)[C@@H]1CCCN1C(=O)[C@@H](NC(=O)[C@@H](N)CS)[C@@H](C)CC)C(=O)N[C@@H](CS)C(=O)N[C@@H](CC(C)C)C(=O)N[C@H](C(=O)N[C@@H](C)C(=O)N[C@@H](CC(C)C)C(N)=O)C(C)C` [Regentide-041, CIPRGGICLVAL-NH2] (H-CIPRGGICLVAL-NH2) registered an inhibition at 150 µM of 52.7 ± 1.2%.
